From PubChem BioAssay AID602236 (The Scripps Research Institute Molecular Screening Center, 2012)
Activity calls are given as the source filed them.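 The calls were made as follows: active = IC50 of 10 µM or lower; inactive = IC50 above 10 µM.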

System: HEK-293 Gal4-VP16 UAS luciferase reporter, luminescence
Test: VP16 transactivation inhibitor potency, dose response, counter-screen for SRC1 inhibitor project, cell-based, luminescence, high throughput, SRC1 series (AID 602236);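 also: inhibitor potency where hits lower luciferase light from Gal4-VP16 transactivation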

Compound	IC50
COc1ccc2c(=O)cc(-c3ccncc3)oc2c1OC	> 12 µM (inactive)
c1cc2c(cn1)cnc1cscc12	11.8 µM (inactive)
CC(=O)N1CCN(c2ccc(Oc3ncnc4sccc34)cc2)CC1	9.64 µM
O=C(NC(NC(=S)N1CCOCC1)C(Cl)(Cl)Cl)c1ccc(Cl)cc1 (stereo unspecified)	15.5 µM (inactive)
O=C(N/N=C/c1ccccc1O)/C(=C/c1ccccc1)CCO	7.52 µM
O=C(CCn1cnc(-c2ccccc2)c1-c1ccccc1)N/N=C/c1ccccc1O	19.9 µM (inactive)
N#Cc1c(-c2ccccc2)c(C#N)c2nc3ccccc3n2c1N	> 35.9 µM (inactive)
CC(C)n1c(-c2cccnc2)nc2cnccc21	9.47 µM
Nc1ccn([C@@H]2O[C@H](CO)[C@@H](O)C2O)c(=O)n1 (stereo partly specified)	16.2 µM (inactive)
CCc1c(C)nc2c(C)cccc2c1SCCC#N	> 35.9 µM (inactive)
Cc1ccc(N=c2c([N+](=O)[O-])nn(-c3ccc4c(c3)OCCO4)n2O)cc1F	27 µM (inactive)
C=CCNc1ncnc2ccc(Br)cc12	5.96 µM
CC(=O)NC(c1cc(Cl)c2cccnc2c1O)C1CC1 (stereo unspecified)	9.3 µM
CC(C)(C)NC(=O)C1(C)CCC(=O)N1CCCn1ccnc1 (stereo unspecified)	12.5 µM (inactive)
O=C1c2cccc(OCc3ccc(F)cc3)c2CCN1Cc1ccccc1	10.7 µM (inactive)
O=[N+]([O-])c1ccc(N(CCO)CCO)c2c1no[n+]2[O-]	7.87 µM
C=C1C(=O)[C@@]23C[C@H]4[C@@H]5[C@@]6(C)CCC[C@@]57[C@@H]2[C@@H](O)[C@@H]1C[C@H]3[C@H]7N4C6	8.05 µM
COc1ccc(-c2cc(=O)oc3c(C)c(O)c(CN(C)C)cc23)cc1	15 µM (inactive)
CCN(CC)CCNC(=O)c1ccc(NC(=O)C2CCN(c3ncnc4sc(C)c(C)c34)CC2)cc1	5.54 µM
S=C(c1ccc(-c2ccccc2)cc1)N1CCOCC1	24 µM (inactive)
Cc1ccccc1C(=O)/C(C#N)=N/Nc1c(C)n(C)n(-c2ccccc2)c1=O	5.6 µM
NS(=O)(=O)c1ccc(Nc2nc(-c3cccnc3)cs2)cc1	> 35.8 µM (inactive)
Cc1ccc(C(=O)Nc2sc(C)c(-c3ccccc3)c2C(N)=O)cc1[N+](=O)[O-]	> 35.9 µM (inactive)
Cc1ccc2occ(/C=N/NC(=O)c3ccncc3)c(=O)c2c1	22.8 µM (inactive)
O=C(CCCc1nc(-c2ccccc2Cl)no1)NC1CCCC1	13.6 µM (inactive)
CCC(C)(C)n1nnnc1CN1CCC(n2c(C)nc3cc(C(F)(F)F)ccc32)CC1	> 35.9 µM (inactive)

Compound	IC50
CCN(C(=O)c1cccc(S(=O)(=O)N(C)C)c1)C12CC3CC(CC(C3)C1)C2	15.7 µM (inactive)
O=C1NCCc2c1[nH]c1ccc([N+](=O)[O-])cc21	32 µM (inactive)
COc1cccc(NC(=O)CN(C)CC(=O)Nc2ccc(Cl)cc2[N+](=O)[O-])c1	20.3 µM (inactive)
CN(C)c1ccc(/C=C/c2nc3ccccc3s2)cc1	19.8 µM (inactive)
c1nc2sc3c(c2c2nnnn12)CCCC3	13.3 µM (inactive)
CCCCN(CCCC)c1ncnc2nc[nH]c12	6.97 µM
CC(=O)C1=C(C)NC2=C(C(=O)CC(C)(C)C2)C1C (stereo unspecified)	13.1 µM (inactive)
COc1cccc(/C=N/NC(=O)C(=O)Nc2ccccc2OC(F)(F)C(F)F)c1O	10.7 µM (inactive)
CC[C@@]1(O)C(=O)OCc2c1cc1n(c2=O)Cc2cc3c(NC(=O)CN)cccc3nc2-1	> 35.9 µM (inactive)
COc1ccc(Nc2ncnc3ccc(C)cc23)cc1	8.4 µM
O=C(N/N=C(\c1ccccc1)c1ccccn1)c1ccccc1Cl	10.8 µM (inactive)
CCCS(=O)(=O)c1c(S(=O)(=O)CCC)c2c(C)cccn2c1C(=O)N/N=C/c1cc(O)cc(O)c1	5 µM
O=C(CCl)N1N=C(c2cccs2)CC1c1ccco1 (stereo unspecified)	20.2 µM (inactive)
CCOc1ccc(-c2noc(CCC(=O)O)n2)cc1	> 35.9 µM (inactive)
c1ccc(-c2csc3ncnc(NCCN4CCOCC4)c23)cc1	18.7 µM (inactive)
CC(=O)c1cc2c(C)cc(=O)oc2cc1O	29 µM (inactive)
N#Cc1cc2ccncc2c2ccccc12	6.89 µM
Cc1ccc(OCC(=O)c2cc(C)n(-c3ccccc3)c2C)c([N+](=O)[O-])n1	12.2 µM (inactive)
CCOc1ccc(/C=C2\SC(=S)N(CCC(=O)O)C2=O)cc1	> 35.9 µM (inactive)
COc1ccc(-c2cnc(N)nc2-c2ccc(OC)cc2O)cc1	11.7 µM (inactive)
COC(=O)c1sc2cnccc2c1N	> 35.9 µM (inactive)
Cc1cc(C)nc(SCc2ccc(C(=O)N/N=C/c3cccc(O)c3O)cc2)n1	5.29 µM
Fc1ccc(CSc2nnc(-c3ccncc3)o2)cc1	7.85 µM
COc1ccc(CNc2ncc(-c3ccc(F)cc3)n2C)c2ccccc12	> 35.9 µM (inactive)
CN(C)C=Nc1c(C(=O)c2ccccc2)sc2nccc(N(C)C)c12	> 35.9 µM (inactive)
